Reference: patent EP1856102B1, “MEDICAMENTS FOR ALZHEIMER” (Tseti, Ioulia, priority 2005, dated 2006)
pIC50: −log10 of the molar value. Marks after values point to notes of the source that are not given here.

Legend:
[1] = test system: female Fischer-344 rats; settings: s.c. once daily for 4 days, dose 84 µM/kg (Indomethacin, 1, 2, 3) or 1350 µM/kg (Naproxen, 4, 5); for Perforating ulcers (%): % of animals which developed perforating ulcers; for Mortality (%): (dead/total) x 100, recorded 24 h after last treatment
Description: Equimolar doses of the parent NSAIDs and the respective derivatives were administered s.c. once daily for 4 days to female Fischer-344 rats (160-180g). The used dose was ca LD50 of the parent NSAID. The incidence of perforating gastrointestinal ulcers, body weight change, melena and mortality were recorded 24 h after the last treatment. […] Table 3: Gastrointestinal toxicity of indomethacin, naproxen and some novel derivatives in rats

[2] = test system: lipid peroxidation of hepatic microsomal fraction; assay: In vitro lipid peroxidation (TBA reactive material); format: biochemical, Fischer-344 rats; settings: at 45 min, 37°C; heat inactivated rat hepatic microsomal fraction, FeSO4/ascorbic acid
Description: Hepatic microsomal fraction from untreated Fischer-344 rats was prepared. The incubation mixture contained heat inactivated (90°C for 90 sec) hepatic microsomal fraction, corresponding to 2.5 mg protein/ml (fmal concentration) or 4 mmol/L fatty acid residues, ascorbic acid (0.2 mmol/L) in Tris-HCl/KCl buffer (50 mmol/L / 150mmol/L, pH 7.4) and various concentrations (1-0.05 mmol/L) of the test compounds dissolved in dimethylsulfoxide (DMSO). The reaction was started by the addition of a freshly prepared FeSO4 solution (10 µM/L) and the mixture was incubated at 37°C for 45 min. Aliquots (0.3mL) from the incubation mixture were taken at various time intervals. Lipid peroxidation was assessed spectrophotometrically (535 against 600 nm) by the determination of the TBA reactive material. Under the above experimental conditions, all compounds, as well as DMSO, were tested and found not to interfere with the assay. Each experiment was performed at least in triplicate.

[3] = test system: carrageenan-induced edema of the rat hind paw; assay: Carrageenan-induced edema of the rat hind paw; format: in vivo, female Fischer-344 rats; settings: 0.3mmol/kg i.p. immediately after carrageenan; paws weighed 3.5 h later; edema suppression in comparison to controls
Description: Edema was induced via i.d. injection of carrageenan (0.1 ml of a 2% w/v aqueous solution) into the right hind paw of female Fischer-344 rats (200-220g) (the left paw serving as control). The compounds under study were dissolved or suspended in water containing a few drops of Tween 80 and were administered i.p. (0.3mmol/kg) immediately after the carrageenan injection. The mice were euthanazed 3.5 h later, both hind paws were severed above the ankle joint and weighted separately. For each animal the swelling caused by the phlogistic was given as percentage of weight increase of right hind paw in comparison to the uninjected left hind paw, and from that, the percentage of edema suppression in comparison to controls was calculated. The parent anti-inflammatory acids (at the same molar concentrations) were used as reference compounds, in addition to the absolute control. […] Table 1: Effect of the test compounds on carrageenan-induced edema of the rat hind paw

[4] = Interaction with the stable free radical DPPH; settings: DPPH 0.2 mmol/L in ethanol, room temperature, 45 min
Description: The test compounds were dissolved in absolute ethanol (analytical grade, iron content was less than 10^-3 (w/v), added to an equal volume of an ethanolic solution of DPPH (final concentration 0.2 mmol/L) at various concentrations (0.1 and 0.2 mmol/L) and kept at room temperature. Absorbance (517 nm) was recorded at 45 min. Each experiment was performed at least in triplicate. Table 5: % Interaction of the test compounds with the stable free radical DPPH

[5] = test system: FCA-induced experimental arthritis in rats; assay: Adjuvant-induced disease (FCA-induced experimental arthritis); format: in vivo, female Fischer-344 rats; settings: 0.3-0.6 mmol/kg i.p. once daily for 14 days; in comparison to non treated AID rats
Description: Adjuvant-induced disease (AID) was induced via i.d. injection of Freund's complete adjuvant (0.1 ml of FCA) in the foot pad of the right hind paw of female Fischer-344 rats. The compounds under study were dissolved or suspended in water containing a few drops of Tween 80 and were administered i.p. (0.3-0.6 mmol/kg) once daily for 14 days. In order to observe the progress of local inflammatory reaction, the change in swelling of paw with adjuvant treatment was evaluated by allocation of points (inflammatory score) on an arbitrary scale, while for the quantification of arthritis the arthritic score was recorded.
Table 2: Effect of the test compounds on FCA-induced experimental arthritis in rats

[6] = test system: tyloxapol-induced hyperlipidemia; assay: Tyloxapol-induced hyperlipidemia in rats; format: in vivo; settings: 56µmol/kg i.p. once, 24 h later, tyloxapol 200 mg/kg i.p.; for % decrease LDL: plasma LDL-cholesterol; for % decrease TC: plasma total cholesterol; for % decrease TG: plasma triglyceride
Description: The hypocholesterolemic and hypolipidemic activity of the test compounds was assessed in vivo by the inhibition of tyloxapol-induced hyperlipidemia (200 mg/kg i.p.) in rats. The novel NSAID derivatives were administered (56µmol/kg, i.p., once) to hypercholesterolemic rats and 24 h later the plasma total cholesterol (TC), LDL and triglyceride (TG) concentrations were determined in blood taken from the aorta. […] Table 6: Effect of the test compounds on plasma total cholesterol, triglyceride and LDL-cholesterol levels of hyperlipidemic rats

With `COc1ccc2c(c1)c(CC(=O)N1CCCC1C(=O)Oc1ccc(C)cc1OC)c(C)n2C(=O)c1ccc(Cl)cc1` (stereo not drawn) [Compound 3, 1-{2-[1-(4-Chloro-benzoyl)-5-methoxy-2-methyl-1-H-indol-3-yl]-acetyl}-pyrrolidine-2-carboxylic acid-2-methoxy-4-methyl-phenyl ester] the “Perforating ulcers (%)” value [1] was 0%, the “Mortality (%)” value [1] was 0% and the Body weight change [1] was “+11.1 g/100 body weight”.
In the case of `CCOC(=O)C(CS)NC(=O)C1CCCN1C(=O)Cc1c(C)n(C(=O)c2ccc(Cl)cc2)c2ccc(OC)cc12` (stereo not drawn) [Compound 2, 2-[(1-{2-[1-(4-Chloro-benzoyl)-5-methoxy-2-methyl-1-H-indol-3-yl]-acetyl}-pyrrolidine-2-carbonyl)-amino]-3-mercapto-propionic acid ethyl ester], the pIC50 [2] was 3.41, the “% Edema inhibition” value [3] was 20% and the “Perforating ulcers (%)” value [1] was 0%. For the same compound, the “Mortality (%)” value [1] was 0%, the Body weight change [1] was “+3.9 g/100 body weight” and the “% Interaction with the stable free radical DPPH” value ([4]; compound 0.2mM) was 70%. For the same compound, the “% Interaction with the stable free radical DPPH” value ([4]; compound 0.1mm) was 44% and the “% Inhibition of experimental arthritis” value [5] was 75%.
With `COc1ccc2c(c1)c(CC(=O)N1CCCC1C(=O)NCCS)c(C)n2C(=O)c1ccc(Cl)cc1` (stereo not drawn) [Compound 1, 1-{2-[1-(4-Chloro-benzoyl)-5-methoxy-2-methyl-1-H-indol-3-yl]-acetyl}-pyrrolydine-2-carboxylic acid (2-mercapto-ethyl) amide] the “% Edema inhibition” value [3] was 23%, the “Perforating ulcers (%)” value [1] was 0% and the “Mortality (%)” value [1] was 0%. For the same compound, the Body weight change [1] was “+1.3 g/100 body weight” and the “% Inhibition of experimental arthritis” value [5] was 50%.
With `COc1ccc2cc(C(C)C(=O)N3CC(O)CC3C(=O)NCCS)ccc2c1` (stereo not drawn) [Compound 7, 4-Hydroxy-1-[2-(6-methoxy-naphthalen-2-yl)-propionyl]-pyrrolidine-2-carboxylic acid-(2-mercapto-ethyl) amide] the “% Edema inhibition” value [3] was 31%, the “% Interaction with the stable free radical DPPH” value ([4]; compound 0.2mM) was 56% and the “% Interaction with the stable free radical DPPH” value ([4]; compound 0.1mm) was 34%. The “% decrease LDL” value [6] was 53.5 * %, the “% decrease TC” value [6] was 45* % and the “% decrease TG” value [6] was 51%.
With `CCOC(=O)C(CS)NC(=O)C1CCCCN1C(=O)C(C)c1ccc2cc(OC)ccc2c1` (stereo not drawn) [Compound 9] the pIC50 [2] was 3.91, the “% Interaction with the stable free radical DPPH” value ([4]; compound 0.2mM) was 76% and the “% Interaction with the stable free radical DPPH” value ([4]; compound 0.1mm) was 46%. The “% decrease LDL” value [6] was 52* %, the “% decrease TC” value [6] was 40% and the “% decrease TG” value [6] was 21.3%.
For `COc1ccc2c(c1)c(CC(=O)O)c(C)n2C(=O)c1ccc(Cl)cc1` [Indomethacin, reference compound], the “% Edema inhibition” value [3] was 47.8% and the “Mortality (%)” value [1] was 50%.
In the case of `CCOC(=O)C(CS)NC(=O)C1CCCN1C(=O)C(C)c1ccc2cc(OC)ccc2c1` (stereo not drawn) [Compound 5], the pIC50 [2] was 3.49, the “% Edema inhibition” value [3] was 30% and the “Perforating ulcers (%)” value [1] was 0%. For the same compound, the “Mortality (%)” value [1] was 0%, the Body weight change [1] was “+1.5 g/100 body weight” and the “% Interaction with the stable free radical DPPH” value ([4]; compound 0.2mM) was 85%. The “% Interaction with the stable free radical DPPH” value ([4]; compound 0.1mm) was 65%, the “% decrease LDL” value [6] was 55* % and the “% decrease TC” value [6] was 58** %. The “% decrease TG” value [6] was 68.7** % and the “% Inhibition of experimental arthritis” value [5] was 100%.
With `COc1ccc2cc([C@H](C)C(=O)O)ccc2c1` [Naproxen, reference compound] the “% Edema inhibition” value [3] was 45% and the “Mortality (%)” value [1] was 50%.
With `COc1ccc2cc(C(C)C(=O)N3CCCC3C(=O)NCCS)ccc2c1` (stereo not drawn) [Compound 4, 1-[2-(6-methoxy-naphthalen-2-yl)-propionyl]-pyrrolidine-2-carboxylic acid-(2-mercapto-ethyl) amide] the “% Edema inhibition” value [3] was 30%, the “% Interaction with the stable free radical DPPH” value ([4]; compound 0.2mM) was 78% and the “% Interaction with the stable free radical DPPH” value ([4]; compound 0.1mm) was 57%. The “% Inhibition of experimental arthritis” value [5] was 30%.
In the case of `COc1ccc2cc(C(C)C(=O)N3CCCC3C(=O)Oc3ccc(C)cc3OC)ccc2c1` (stereo not drawn) [Compound 6, 1-[2-(6-methoxy-naphthalen-2-yl)-propionyl]-pyrrolidine-2-carboxylic acid 2-methoxy-4-methyl phenyl ester], the “% Edema inhibition” value [3] was 20%.
With `CCOC(=O)C(CS)NC(=O)C1CC(O)CN1C(=O)C(C)c1ccc2cc(OC)ccc2c1` (stereo not drawn) [Compound 8] the pIC50 [2] was 3.30, the “% Interaction with the stable free radical DPPH” value ([4]; compound 0.2mM) was 75% and the “% Interaction with the stable free radical DPPH” value ([4]; compound 0.1mm) was 55%. For the same compound, the “% decrease LDL” value [6] was 56.5* %, the “% decrease TC” value [6] was 35.5% and the “% decrease TG” value [6] was 25%.
